Laboratory results as given in US7745644B2, “Antibiotic compounds” (Merck Sharp & Dohme Corp., priority 2003, dated 2010).
Converted amounts (≈) assume the structure as drawn.

Assays:
S. aureus = test: Microbroth dilution MIC assay; type: cell-based, Staphylococcus aureus
Protocol: (§1) The strains used are isolates from either the Merck Culture Collection, the Merck Clinical Culture Collection or from Clinical Trials. The strain of Haemophilus influenzae is a mouse pathogen used for in vivo testing at Merck. The Escherichia coli strain is a cell wall permeable strain. The Candida albicans strain is used as a control. These culture are maintained as frozen stocks at −80° C. in a.) Microbank beads; b.) 2× Skim Milk; or c.) in 2× Trypticase Soy Broth+15% glycerol/50% horse serum (Haemophilus and Streptococcus pneumoniae).
(§2) Selected isolates are subcultured onto either Chocolate Agar Plates (Haemophilus influenzae), onto Trypticase Soy+5% Sheep Blood Agar Plates (Streptococcus pneumoniae, Staphylococcus aureus, Escherichia coli, Enterococcus, Bacillus) or onto Sabouraud Dextrose Agar (Candida) and incubated at 35° C. Haemophilus and Streptococcus pneumoniae are incubated in 5% CO2; all other isolates are incubated in ambient air. Isolates are subcultured 2× before assay.
(§3) Colonies are selected from plates and used to prepare an inoculum equivalent to a 0.5 McFarland standard in Trypticase Soy Broth. An inoculum with a density equivalent to a 1.0 McFarland standard is prepared for Streptococcus pneumoniae. The inoculum density for all cultures is −10^8 CFU/mL in TSB. This TSB inoculum is diluted 1:10 in sterile saline (4 mL inoculum+36 mL saline; equivalent to −10^7 CFU/mL) and kept on ice until used to inoculate microtiter plates.
All wells of 96-well microtiter plates (Dynex) are filled with 100 TL media. Haemophilus test media plates are prepared to test Haemophilus influenzae; Cation-Adjusted Mueller Hinton+5% Lysed Horse Blood plates are prepared to test Streptococcus pneumoniae; Cation-Adjusted Mueller Hinton Broth plates are prepared to test Enterococcus, Staphylococcus aureus, Escherichia coli and Bacillus subtilis. RPMI 1640 is used to test Candida The MICs against S. aureus Smith are determined in Cation-adjusted Mueller Hinton and in Cation-Adjusted Mueller Hinton+50% Human Serum to determine if the compound is inactivated by some component in serum (indicated by an increase in the MIC). Filled plates are wrapped in plastic bags (to minimize evaporation), stored frozen and thawed before use.
The compounds are prepared on a weight basis. Compounds are prepared to 2 mg/mL in 100% DMSO, then diluted to 1 mg/mL in a 1:1 dilution of DMSO/2×CAMHB (final concentration=50% DMSO/50% CAMHB). […]
(§4) All wells of microtiter plates are inoculated with (saline-diluted) culture using the MIC 2000 System, an automated plate inoculating device which delivers an inoculum of 1.5 TL per well. […] Results are recorded after 22-24-hours' incubation. Plates were read to no growth.

E. faecalis = test: Microbroth dilution MIC assay; type: cell-based, Enterococcus faecalis; settings: various strains of E. faecalis
Protocol: as §1, §2
(§5) Colonies are selected from plates and used to prepare an inoculum equivalent to a 0.5 McFarland standard in Trypticase Soy Broth. […]
as §4

E. faecium = test: Microbroth dilution MIC assay; type: cell-based, Enterococcus faecium
Protocol: as §1, §2, §3
All wells of 96-well microtiter plates (Dynex) are filled with 100 TL media. […]
as §4

B. subtilis = test: Microbroth dilution MIC assay; type: cell-based, Bacillus subtilis; settings: various strains of B. subtilis
Protocol: as §1, §2, §5, §4

S. pneumoniae = test: Microbroth dilution MIC assay; type: cell-based, Streptococcus pneumoniae; settings: various strains of S. pneumoniae
Protocol: as §1, §2, §5, §4

E. coli = test: Microbroth dilution MIC assay; type: cell-based, Escherichia coli; settings: various strains of E. coli; cell wall permeable strain
Protocol: as §1, §2, §5, §4

S. epidermidis = test: Microbroth dilution MIC assay; type: cell-based, Staphylococcus epidermidis; settings: macrolide-resistant S. epidermidis
[1] = system: vancomycin-resistant Enterococcus sp. (VRE); test: Microbroth dilution MIC assay; type: cell-based
Protocol: as §1, §2, §5, §4

[2] = Microbroth dilution MIC assay, all test strains pooled; type: cell-based; settings: range over all test strains, including resistant ones; NCCLS guidelines; read-out: minimum inhibitory concentration (MIC)
Protocol: as §1, §2, §5, §4

For C[C@@]12C[C@]34C=CC(=O)[C@](C)(CCC(=O)Nc5c(O)ccc(C(=O)O)c5O)C3[C@@H](CC1C4)O2 (some centres unmarked) [Compound I], the antibacterial activity (S. aureus; linezolid-resistant S. aureus) was “demonstrates antibacterial activity”, the antibacterial activity (S. aureus; macrolide-resistant S. aureus) was “demonstrates antibacterial activity” and the antibacterial activity (S. aureus; methicillin-resistant S. aureus (MRSA)) was “demonstrates antibacterial activity”. For the same molecule, the antibacterial activity (S. aureus; various strains of S. aureus) was “demonstrates antibacterial activity”, the antibacterial activity (E. faecalis) was “demonstrates antibacterial activity” and the antibacterial activity (E. faecium; linezolid-resistant E. faecium) was “demonstrates antibacterial activity”. The antibacterial activity (E. faecium; multidrug-resistant E. faecium) was “demonstrates antibacterial activity”, the antibacterial activity (E. faecium; various strains of E. faecium) was “demonstrates antibacterial activity” and the antibacterial activity (B. subtilis) was “demonstrates antibacterial activity”. For the same molecule, the antibacterial activity (S. pneumoniae) was “demonstrates antibacterial activity”, the antibacterial activity (E. coli) was “demonstrates antibacterial activity” and the antibacterial activity (S. epidermidis) was “demonstrates antibacterial activity”. For the same molecule, the antibacterial activity [1] was “demonstrates antibacterial activity” and the MIC [2] was 0.1 to 32 µg/mL (≈ 0.227 to 72.5 µM).
